According to PMC7801313, “Effect of lurbinectedin on the QTc interval in patients with advanced solid tumors: an exposure–response analysis” (Cancer Chemotherapy and Pharmacology, 2020):

Assays:
[1] = system: patients with advanced solid tumors; test: QT evaluation study, by time point ECG analysis; type: in vivo, human; settings: before vs after prophylactic palonosetron 0.25 mg i.v., cycle 1 day 1
Procedure: This was a QT evaluation study (EudraCT No. 2015-000206-18; ClinicalTrials.gov: NCT02451007) performed at a subset of sites participating in a multicenter, open-label, exploratory, phase II basket clinical trial (EudraCT No: 2014-003773-42; ClinicaTrials.gov: NCT02454972) conducted in patients with selected advanced solid tumors. The schedule used in this QT evaluation study was that evaluated in the basket trial: lurbinectedin 3.2 mg/m^2 given as a 1-h i.v. infusion q3wk.
A screening ECG was collected between day -10 and day -2 before the first lurbinectedin infusion (day 1 of cycle 1) and transmitted to the central ECG laboratory to confirm the patient’s eligibility.
On day 1 of cycle 1, two baseline triplicate ECGs (three 10-s digital ECGs in close succession) were collected: one before administration of prophylactic medication or pre-dose 1, and the other after antiemetic prophylactic medication (palonosetron 0.25 mg i.v.) and before the start of the lurbinectedin infusion or pre-dose 2 (also on cycle 2).
In cycle 1 and cycle 2, the following triplicate ECGs were collected 5–10 min before their time-matched PK time points: 5 min before end of the lurbinectedin infusion (EOI), 30 min, 1, 3, 24, 72 (only on cycle 1), and 168 h after EOI.
A 12-lead automated digital ECG recorder [Mortara Instrument (Milwaukee, WI, USA) ELI-150 ECG 12-lead digital recorder] was provided by a third-party central ECG laboratory (eResearchTechnology, Inc., Philadelphia, PA, USA). Analysis and reporting of ECG data were performed by a limited number of skilled readers who were blinded to treatment time point. ECG review of a particular patient was performed by a single reader. Interval duration measurements were collected using computer-assisted caliper placements on three consecutive beats. A cardiologist then verified the interval durations and performed the morphology analysis, noting any T-U wave complex compatible with an effect on cardiac repolarization. The ECG analysis was conducted in Lead II or in Lead V5 if Lead II was not analyzable. If Lead V5 was not analyzable, then Lead V2 was used, and followed by the most appropriate lead if necessary. The mean of triplicate ECG measures at each time point for each patient was used for analyses.
Fridericia’s formula [6] is currently considered the most accurate method for correcting the effect of HR on QT interval [7], and was used as the main method for HR correction for QT (QTcF). Nevertheless, graphical inspection of QTcF and QT corrected by Bazett’s formula (QTcB) versus RR interval plots and statistical comparison of resulting squared linear regression slopes (R^2) was performed.
The primary endpoint was the change in QTc corrected by the Fridericia’s formula (ΔQTcF) between each scheduled post-baseline ECG time point and baseline at cycle 1. A patient was considered evaluable for the primary endpoint if he/she had baseline and one or more post-baseline ECG assessments.
Secondary endpoints were the ΔQTcF/lurbinectedin plasma concentration relationship, and change in other ECG parameters (i.e., HR, QRS, and PR).
The primary comparison was ΔQTcF at each ECG time point. A non-inferiority criterion of 20 ms was used to establish the absence of post-baseline QTc prolongation when compared to baseline. An analysis of variance model with mixed effects was fitted, with ΔQTc data as the dependent variable and ECG time point as the fixed effects, and patient as random effect.
Using the estimated least square means (LSM) and intra-patient standard deviation (Std) obtained from this model, a two-sided 90% confidence interval (CI) was calculated for each LSM ΔQTc. Non-inferiority was to be concluded if the upper bound (UB) of the one-sided 95% CI fell below 20 ms at each ECG time point.

[2] = system: patients; settings: cited from earlier work

Row | Compound | difference between mean pre-dose 1 and mean pre-dose 2 QTcF [1] [ms] | heart rate change ([2]; 3-h i.v. infusion, largest increases at 4 h after start of infusion) | cardiac risk profile [2]
1 | O=C1c2cccc3c2[C@H](CCC3)CN1[C@@H]1CN2CCC1CC2 [prophylactic medication, palonosetron, reference compound] | 1.3 |  | 
2 | COc1cc2c(cc1O)CCN[C@]21CS[C@@H]2c3c(OC(C)=O)c(C)c4c(c3[C@H](COC1=O)N1[C@@H]2[C@H]2c3c(cc(C)c(OC)c3O)C[C@@H]([C@@H]1O)N2C)OCO4 [trabectedin] |  | heart rate increased slightly | low cardiac risk profile
